Reference: the supplement of paper PMC9265050, “Inhibition of RNA Binding in SND1 Increases the Levels of miR-1-3p and Sensitizes Cancer Cells to Navitoclax” (Cancers, 2022)

Test system: SW480
Test: drug sensitivity score (DSS, integrated dose-response area); higher = more sensitive (stronger viability reduction); extreme values may be limits of the assay
Method in brief: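 After 7 days of induction with 0.1 µg/mL doxycycline, SW480 cells stably harbouring inducible control or SND1-targeting shRNA were plated at 1000 cells per well in 384-well plates preloaded with 525 small-molecule inhibitors at five concentrations. CellTiter-Glo viability readings were taken 72 h later. Drug sensitivity scores come from integrating the area under a fitted non-linear dose–response model.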

[1] = shRNA: SND1 shRNA1 (SND1 silenced)
[2] = shRNA: SND1 shRNA2 (SND1 silenced)
[3] = shRNA: control shRNA (non-targeting)

Structure (SMILES) | drug sensitivity score [1] [DSS] | drug sensitivity score [2] [DSS] | drug sensitivity score [3] [DSS]
Nc1ccccc1NC(=O)c1ccc(CNc2nccc(-c3cccnc3)n2)cc1 [Mocetinostat] | 10.2 | 6.1 | 7.8
C[C@@H]1CCN(C(=O)CC#N)C[C@@H]1N(C)c1ncnc2[nH]ccc12 [Tofacitinib] | 0 | 0 | 0
CC1(C)CCC(CN2CCN(c3ccc(C(=O)NS(=O)(=O)c4ccc(NCC5CCOCC5)c([N+](=O)[O-])c4)c(Oc4cnc5[nH]ccc5c4)c3)CC2)=C(c2ccc(Cl)cc2)C1 [Venetoclax] | 0 | 0 | 0
Clc1ccc(C(c2ccccc2Cl)C(Cl)Cl)cc1 (stereo not given) [Mitotane] | 0 | 0 | 0
CC(C)(C)NC(=O)[C@H]1CC[C@H]2[C@@H]3CC[C@H]4NC(=O)C=C[C@]4(C)[C@H]3CC[C@]12C [Finasteride] | 0 | 0 | 0.4
Cc1cnc(NC(=O)Nc2cc(Br)c(C)cc2OC[C@@H]2CNCCO2)cn1 [Rabusertib] | 1.8 | 1.4 | 2
S=P(N1CC1)(N1CC1)N1CC1 [Thio-TEPA] | 0 | 0 | 0
Cc1c2oc3c(C)ccc(C(=O)N[C@@H]4C(=O)N[C@H](C(C)C)C(=O)N5CCC[C@H]5C(=O)N(C)CC(=O)N(C)[C@@H](C(C)C)C(=O)O[C@@H]4C)c3nc-2c(C(=O)N[C@@H]2C(=O)N[C@H](C(C)C)C(=O)N3CCC[C@H]3C(=O)N(C)CC(=O)N(C)[C@@H](C(C)C)C(=O)O[C@@H]2C)c(N)c1=O [Dactinomycin] | 24.3 | 24 | 26.8
CNC(=O)c1cc(Oc2ccc(NC(=O)Nc3cc(C(C)(C)C)nn3-c3ccc4ncccc4c3)c(F)c2)ccn1 [Rebastinib] | 0 | 0 | 0
CC(C)CC(=O)Nc1n[nH]c2c1CN(C(=O)C1CCN(C)CC1)C2(C)C | 6.1 | 5.8 | 10.7
CS(=O)(=O)N1CCc2c(-c3cnc(N)nc3)nc(N3CCOCC3)nc21 | 7 | 6.4 | 4.2
CC(C)Nc1cc(-c2c[nH]c(C(=O)N[C@H](CO)c3cccc(Cl)c3)c2)c(Cl)cn1 [Ulixertinib] | 10.2 | 2.3 | 7.6
Cc1nc(Nc2ncc(C(=O)Nc3c(C)cccc3Cl)s2)cc(N2CCN(CCO)CC2)n1 [Dasatinib] | 0.5 | 6.2 | 2.1
Cn1cc(C2=C(c3cn(C4CCN(Cc5ccccn5)CC4)c4ccccc34)C(=O)NC2=O)c2ccccc21 [Enzastaurin] | 4.1 | 0 | 1.4
c1cc(CN2CCCNCCNCCCNCC2)ccc1CN1CCCNCCNCCCNCC1 [Plerixafor] | 0 |  | 0
CN(C)C1CCN(C(=O)c2ccc(NC(=O)Nc3ccc(-c4nc(N5CCOCC5)nc(N5CCOCC5)n4)cc3)cc2)CC1 [Gedatolisib] | 4.2 | 9.6 | 10.3
CC(C)c1cc(-c2n[nH]c(=O)n2-c2ccc3c(ccn3C)c2)c(O)cc1O [Ganetespib] | 12.7 | 12.5 | 13.9
N#Cc1ccc(COC[C@H]2O[C@@H](n3c(NCc4ccc(Cl)c(Cl)c4)nc4c(N)ncnc43)[C@H](O)[C@@H]2O)cc1 | 0 | 0 | 0.1
O=C1CCC(N2C(=O)c3ccccc3C2=O)C(=O)N1 (stereo not given) [Thalidomide] | 0.5 | 0.1 | 2
CC[C@@]1(O)C(=O)OCc2c1cc1n(c2=O)Cc2cc3c(CN(C)C)c(O)ccc3nc2-1 [Topotecan] | 11.3 | 8.8 | 9.7
Cc1cc(C)c(CNC(=O)c2cc(-c3ccc(CN4CCOCC4)cc3)cc3c2cnn3C2CCCC2)c(=O)[nH]1 [EPZ-5687] | 0 | 0 | 0
N#Cc1c(Oc2ccc(F)c(NC(=O)Cc3cccc(C(F)(F)F)c3)c2)ccc2nc(NC(=O)C3CC3)sc12 [TAK-632] | 5.9 | 0.5 | 3.1
Nc1nccc(-c2c(-c3ccc(F)cc3)ncn2C2CCCCC2)n1 | 0.8 | 0.4 | 0.8
c1ccc(Cn2c(-c3ccc(OC[C@H](C4CCNCC4)n4c(-c5ccccc5)nc5ccccc54)cc3)nc3ccccc32)cc1 [deltarasin] | 5.7 | 6.6 | 4.4

Structure (SMILES) | drug sensitivity score [1] [DSS] | drug sensitivity score [2] [DSS] | drug sensitivity score [3] [DSS]
Oc1nc(-c2ccc(C(F)(F)F)cc2)nc2c1CSCC2 [XAV-939] | 3.9 | 0 | 3.2
COc1cc2c(Nc3ccc(Cl)c(Cl)c3F)ncnc2cc1OC[C@@H]1C[C@@H]2CN(C)C[C@@H]2C1 [XL-647] | 2.1 | 3.1 | 2.4
C=CC(=O)Nc1cc2c(Nc3ccc(F)c(Cl)c3)ncnc2cc1OCCCN1CCOCC1 [Canertinib] | 7 | 6.2 | 8.6
CN(C)C(=O)c1cc2cnc(Nc3ccc(N4CCNCC4)cn3)nc2n1C1CCCC1 [Ribociclib] | 3.8 |  | 4.9
COc1ncc(-c2ccc3nccc(-c4ccnnc4)c3c2)cc1NS(=O)(=O)c1ccc(F)cc1F [Omipalisib] | 13.7 | 12.4 | 9.7
CC[C@]1(O)C[C@H]2CN(CCc3c([nH]c4ccccc34)[C@@](C(=O)OC)(c3cc4c(cc3OC)N(C=O)[C@H]3[C@@](O)(C(=O)OC)[C@H](OC(C)=O)[C@]5(CC)C=CCN6CC[C@]43[C@@H]65)C2)C1 [Vincristine] | 10.1 | 9.7 | 16.6
CCOc1cc2ncc(C#N)c(Nc3ccc(F)c(Cl)c3)c2cc1NC(=O)/C=C/CN(C)C [Pelitinib] | 7.8 | 8.6 | 12.3
COc1ccc(CCc2nc3cc(-c4c(C)noc4C)ccc3n2C[C@H](C)N2CCOCC2)cc1Cl [SGC-CBP30] | 0.8 | 2.1 | 2.3
O=C(O)c1ccc(Nc2ncc3c(n2)-c2ccc(Cl)cc2C(c2c(F)cccc2F)=NC3)cc1 [MLN-8054] | 6.3 |  | 6.5
COc1cc(Nc2ncc(F)c(Nc3ccc4c(n3)NC(=O)C(C)(C)O4)n2)cc(OC)c1OC [Tamatinib] | 0.4 | 0.4 | 0
C=CCc1cccc(/C=N/NC(=O)CN2CCN(Cc3ccccc3)CC2)c1O [PAC-1] | 6.8 | 6.3 | 7
NC(=O)Nc1cc(-c2cccc(F)c2)sc1C(=O)N[C@H]1CCCNC1 [AZD7762] | 7.8 | 8.6 | 8.7
COc1ccc(-c2nc(N3CCOCC3)c3sc(CN(C)c4ncc(C(=O)NO)cn4)cc3n2)cn1 [CUDC-907] | 40.7 | 33.9 | 34.2
Oc1ccc2c(c1)CC[C@H](c1ccccc1)[C@@H]2c1ccc(OCCN2CCCC2)cc1 [Lasofoxifene] | 0.8 | 0.7 | 2
C[C@]12C=CC(=O)C=C1CC[C@@H]1[C@@H]2[C@@H](O)C[C@@]2(C)[C@H]1CC[C@]2(O)C(=O)CO [Prednisolone] | 0 | 0 | 0
Nc1ccccc1NC(=O)c1ccc(CNC(=O)OCc2cccnc2)cc1 [Entinostat] | 5.3 | 2.6 | 2.8
CCN(CC)Cc1ccc2cc(COC(=O)Nc3ccc(C(=O)NO)cc3)ccc2c1 [Givinostat] | 6.6 | 7.3 | 6.7
CC1=C(/C=C/C(C)=C/C=C/C(C)=C/C(=O)O)C(C)(C)CCC1 [Tretinoin] | 0 | 0 | 0
Nc1ccn([C@@H]2O[C@H](CO)[C@@H](O)[C@@H]2O)c(=O)n1 [Cytarabine] | 5.4 | 0 | 3.6
O=C(O)CNC(=O)c1c(O)c2ccccc2n(Cc2ccccc2)c1=O [IOX-2] | 5 | 2.3 | 6.2
CCc1c(C(=O)C(N)=O)c2c(OCC(=O)O)cccc2n1Cc1ccccc1 [Varespladib] | 0 | 1.1 | 0
C1=N/C2=N/c3ccc(OCCN4CCCC4)c(c3)COC/C=C/COCc3cccc(c3)C(=C1)N2 [Pacritinib] | 9.6 |  | 10
COc1ccc(-c2ccc3ncc4c(c3c2)n(-c2ccc(N3CCNCC3)c(C(F)(F)F)c2)c(=O)n4C)cn1 [NVP-BGT226] | 18.6 | 20.6 | 19
CCCCNc1ncc(C(=O)NCc2ccc(-n3ccnc3)cc2)c(NC2CCC(O)CC2)n1 (stereo not given) [UNC2881] | 0 | 0 | 0
